Laboratory results published in patent publication US7741540B2, “Compositions comprising D-amino acids” (BASF Plant Science GmbH, priority 2002, dated 2010).
Entries after “also recorded” stand apart in the source; their conditions may differ.

How the values were obtained:
[1] = test system: Arabidopsis thaliana expressing Rhodotorula gracilis D-amino acid oxidase (dao1); assay: Growth of plants expressing D-amino acid oxidase on D-amino acid media in sterile agar culture; format: in vivo
From the text: Transgenic plants expressing D-amino acid oxidase were constructed essentially in the same way as the dsdA plants described above, with the following modifications: The dao1 gene (EC: 1.4.3.3 (SEQ ID NO: 6): NCBIU60066 (SEQ ID NO: 5)) from the yeast Rhodotorula gracilis (Rhodosporidium toruloides) was cloned with PCR with a cDNA library prepared from yeast grown on D-alanine containing medium to induce expression of the target gene, as a template. PCR primers were 5′-[…] (SEQ ID NO: 3) and 5′-[…] (SEQ ID NO: 4).
PCR was also performed with another set of primers, with one primer flanking the 5′ end of the open reading frame as set out above and a 3′ primer excluding the last […] nucleotides. The last nine nucleotides encode the signal peptide SKL, which guides the protein to the peroxisome sub-cellular organelle.
The resulting amplified sequences encode proteins which have the same amino acid sequence but which differ in the respect of their location in the cell. The truncated polypeptide, without the signal peptide, is expressed in the cytosol, while the full-length polypeptide is expressed in the peroxisome.
Construction of Arabidopsis thaliana plants expressing two variants of Rhodotorula gracilis D-amino acid oxidase were made as described above.

wild type Arabidopsis = assay: Growth of wild type plants on D-Asn or D-ile in sterile agar culture; format: in vivo, Arabidopsis thaliana
[2] = test system: Somatic embryonic cell suspension cultures of Picea abies; assay: Somatic embryonic cell suspension cultures grown on a range of D-serine concentrations; format: cell-based; conditions: 0, 0.3, 3 and 30 mM tested
Experimental: Somatic embryonic cell suspension cultures of Picea abies were grown on a range of D-serine concentrations; 0, 0.3, 3 and 30 mM D-serine. D-serine was lethal to cells at and above 3 mM.

[3] = test system: transgenic Arabidopsis thaliana expressing E. coli D-serine ammonia-lyase (dsdA); assay: Growth and N content of transgenic plants expressing dsdA on D-serine media; format: in vivo
From the text: The E. coli gene dsdA (D-serine dehydratase (D-serine deaminase) [EC:4.3.1.18 (SEQ ID NO: 8)] NCBI accession number J01603 (SEQ ID NO: 7)) was amplified by PCR using primers 5′-[…] (SEQ ID NO: 1) and 5′-[…] (SEQ ID NO: 2). The PCR product was sub-cloned into pT-easy (Promega) and sequenced with DYEnamics cycle sequencing kit, (Amersham Pharmacia biotech). Alignment analysis with the database sequence confirmed successful full length cloning of dsdA. The clone was subsequently ligated into the BamH1 site of the CaMV 35S expression cassette of the binary vector pPCV702Km, which is a disarmed Ti-plasmid of Agrobacterium tumefaciens, to generate the vector pPCV702:dsdA. Restriction analysis of this vector with endonuclease confirmed orientation of insertion.
A. thaliana, ecotype Col-0, plants were transformed with Agrobacterium tumefaciens strain (GV3101:pMP90 RK) through vacuum infiltration (Clough, S. J. & Bent, A. F. Plant Journal. 16, 735-743 (1998)). Transformants were selected on kanamycin containing plates, and molecularly confirmed using northern blots. All analyses were performed using lines homozygous for the transgenic trait.
(§1) A. thaliana seeds from non-transformed plants and D-Serine ammonia-lyase transformed plants were surface sterilised with 70% ethanol and 0.1% Tween 80 for 10 minutes and rinsed briefly in 95% ethanol. 10 seeds were sown in each plate and the plates where thereafter sealed with gas permeable tape. The growth medium was half-strength MS (Murashige, T. & Skoog, F. Physiol Plant 15, 310-313 (1962)) (with 0.5% w/v sucrose and 0.8% w/v agar) with nitrogen either excluded or included as 3 mM nitrate. Filter sterilised D-serine was added to the medium after autoclaving. Plants were grown for 14 days after germination with a 16 h photoperiod at 24° C. Plants were extracted from the plates, washed three times in 0.5 mM CaCl2 and thereafter dried at 40° C. for 48 hours before dry weight measurements. The N content was determined on dried plants using an elemental analyser (PerkinElmer 2400 CHN). Biomass and nitrogen content were measured on a per plate basis and there were 10 plants per plate. Six independent transgenic lines were evaluated for their capacity to grow on D-serine and no substantial difference was noticed among the lines, although dsdA transcript levels varied substantially according to northern blot analyses.
Transgenic Arabidopsis thaliana plants expressing the gene encoding D-serine dehydratase were grown sterile alongside wild type plants on agar for 20 days on standard MS medium supplemented with varying concentrations of D-serine as the sole N source (30 mM, 3 mM, 0.3 mM) along with a control lacking any nitrogen.

[4] = test system: poplar transformed with dsdA; assay: Resistance of dsdA-transformed plants to D-Ser; conditions: in vivo
From the text: (§2) Poplar and tobacco were transformed using the same vector and transformation protocol described above for the transformation of Arabidopsis.

[5] = test system: tobacco transformed with dsdA; assay: Resistance of dsdA-transformed plants to D-Ser; conditions: in vivo
From the text: as §2

[6] = test system: Arabidopsis seedlings grown on soil; assay: Selection of transgenic seedlings on soil by spraying D-Serine; format: in vivo, Arabidopsis thaliana; conditions: 30 mM sprayed three times during one week
[7] = test system: dsdA-transformed embryos of Picea abies; assay: Selection of dsdA-transformed embryos on D-serine medium; format: cell-based
Experimental: The transformation method used was particle bombardment of a cell suspension. Somatic embryonic cell suspension cultures of Picea abies were grown on a range of D-serine concentrations; 0, 0.3, 3 and 30 mM D-serine. D-serine was lethal to cells at and above 3 mM.

wild type poplar = assay: Shoot formation on shoot inducing media with D-Ser; format: in vivo
[8] = test system: wild-type Arabidopsis thaliana; assay: Growth of wild-type plants on sterile agar supplied with D-serine; format: in vivo; conditions: for toxicity to wild-type plants: FIG. 3, FIG. 5
Experimental: as §1, with “analyses. Seeds from Solanum esculentum, Hordeum vulgare, Zea mays, Populus tremuloides, Nicotiana tabacum and Arabidopsis thaliana were surface sterilised and grown for two to three weeks on agar media identical to the nitrate free media described above and amended with 0, 0.3, 3 and 30 mM D-serine. […] For A. thaliana, clear growth inhibition is observed at a concentration of 0.3 mM D-serine in the growth medium and total growth inhibition occurs at 3 mM (FIG. 3). Transgenic Arabidopsis thaliana plants expressing the gene encoding D-serine dehydratase were grown sterile alongside wild type plants on agar for 20 days on standard MS medium supplemented with varying concentrations of D-serine as the sole N source (30 mM, 3 mM, 0.3 mM) along with a control lacking any nitrogen.” for “analyses.”

wild type tobacco = assay: Shoot formation on shoot inducing media with D-Ser; format: in vivo
Nicotiana tabacum = assay: Growth of wild-type seedlings on nitrate free agar media amended with D-serine; format: in vivo; conditions: two to three weeks, 0, 0.3, 3 and 30 mM tested
Experimental: as §1, with “analyses. Seeds from Solanum esculentum, Hordeum vulgare, Zea mays, Populus tremuloides, Nicotiana tabacum and Arabidopsis thaliana were surface sterilised and grown for two to three weeks on agar media identical to the nitrate free media described above and amended with 0, 0.3, 3 and 30 mM D-serine.” for “analyses.”

Hordeum vulgare = assay: as above; format: in vivo; conditions: two to three weeks, 0, 0.3, 3 and 30 mM tested
Experimental: as §1, with “analyses. Seeds from Solanum esculentum, Hordeum vulgare, Zea mays, Populus tremuloides, Nicotiana tabacum and Arabidopsis thaliana were surface sterilised and grown for two to three weeks on agar media identical to the nitrate free media described above and amended with 0, 0.3, 3 and 30 mM D-serine.” for “analyses.”

Zea mays = assay: as above; format: in vivo; conditions: two to three weeks, 0, 0.3, 3 and 30 mM tested
Experimental: as §1, with “analyses. Seeds from Solanum esculentum, Hordeum vulgare, Zea mays, Populus tremuloides, Nicotiana tabacum and Arabidopsis thaliana were surface sterilised and grown for two to three weeks on agar media identical to the nitrate free media described above and amended with 0, 0.3, 3 and 30 mM D-serine.” for “analyses.”

Lycopersicon esculentum = assay: as above; format: in vivo; conditions: two to three weeks, 0, 0.3, 3 and 30 mM tested
Experimental: as §1, with “analyses. Seeds from Solanum esculentum, Hordeum vulgare, Zea mays, Populus tremuloides, Nicotiana tabacum and Arabidopsis thaliana were surface sterilised and grown for two to three weeks on agar media identical to the nitrate free media described above and amended with 0, 0.3, 3 and 30 mM D-serine.” for “analyses.”

Populus tremuloides = assay: as above; format: in vivo; conditions: two to three weeks, 0, 0.3, 3 and 30 mM tested
Experimental: as §1, with “analyses. Seeds from Solanum esculentum, Hordeum vulgare, Zea mays, Populus tremuloides, Nicotiana tabacum and Arabidopsis thaliana were surface sterilised and grown for two to three weeks on agar media identical to the nitrate free media described above and amended with 0, 0.3, 3 and 30 mM D-serine.” for “analyses.”

Compound: CC[C@@H](C)[C@@H](N)C(=O)O [D-ile]
- hindering of growth of transgenic plants expressing dao1 (compared with D-Asn) ([1]; in vivo): even more effective in hindering growth
- wild type growth with increasing concentration (wild type Arabidopsis; examined interval 0.3 to 30 mM): increase in growth
- inhibitory effect on wild type plants (wild type Arabidopsis; in vivo): no visible inhibitory effect

Compound: C[C@@H](N)C(=O)O [D-alanine]
- effect of expressed D-amino acid oxidase on toxicity of the D-amino acid ([1]; in vivo): alleviate the toxicity

Compound: N[C@H](CO)C(=O)O [D-serine]
- concentration lethal to cells [2]: ≥ 3 mM
- effect of expressed D-amino acid oxidase on toxicity of the D-amino acid ([1]; in vivo): alleviate the toxicity
- N concentration of plants compared with plants grown on 3 mM nitrate ([3]; 3 mM D-serine, ANOVA p<0.0001): significantly lower
- growth and N content of transgenic plants with increasing D-serine concentration ([3]; D-serine as sole N source, p<0.0001 (FIG. 4)): increase significantly
- growth on D-serine compared with nitrate at equal concentration ([3]; FIG. 4(top) and 5(top)): lower growth
- growth and nitrogen content of transgenic plants with increasing D-serine concentration ([3]; in the presence of a basic level of nitrate (3 mM), p<0.0001 (FIG. 5)): increased significantly
- toxicity symptoms in transgenic plants ([3]; within the observed range of D-Ser): no toxicity symptoms
- concentration to which transformed plants were resistant [4]: exceeding 30 mM
- concentration to which transformed plants were resistant [5]: exceeding 30 mM
- selection of transgenic plants by spraying [6]: Successful selection
- D-serine concentration of medium on which transformed embryos could be selected [7]: 3 mM
- concentration sufficient to stop all shoot formation (wild type poplar): 3 mM
- growth of wild-type plants with increasing D-serine concentration ([8]; D-serine as sole N source, 0.3, 3, 30 mM (FIG. 3)): No increase
- concentration in the growth medium at which clear growth inhibition is observed ([8]; FIG. 3): 0.3 mM
- concentration in the growth medium at which total growth inhibition occurs ([8]; FIG. 3): 3 mM
- toxicity to wild-type plants [8]: toxic effect
- toxicity to wild-type plants ([8]; listed as D-ser): shows toxicity
- growth and nitrogen content of wild-type plants with increasing D-serine concentration ([8]; in the presence of a basic level of nitrate (3 mM) (FIG. 5)): opposite response
- D-serine concentration in the media at which growth was inhibited ([8]; nitrate free agar, two to three weeks, 0, 0.3, 3 and 30 mM tested): 3 mM
- concentration sufficient to stop all shoot formation (wild type tobacco): 30 mM
- D-serine concentration in the media at which growth was inhibited (Nicotiana tabacum): 3 mM
- D-serine concentration in the media at which growth was inhibited (Hordeum vulgare): 30 mM
- D-serine concentration in the media at which growth was inhibited (Zea mays): 30 mM
- D-serine concentration in the media at which growth was inhibited (Lycopersicon esculentum): 3 mM
- D-serine concentration in the media at which growth was inhibited (Populus tremuloides): 3 mM

Compound: NC(=O)C[C@@H](N)C(=O)O [D-Asn]
- growth / germination of D-amino oxidase expressing plants ([1]; 30 mM, sterile agar culture): total inhibition of growth; also recorded: inhibited significantly more than the wild-type
- growth of wild type plants (wild type Arabidopsis; 30 mM, sterile agar culture): only partially retarded
